Source: patent US20250092065A1, “2-(INDAZOL-5-YL)-6-(PIPERIDIN-4-YL)-1,7-NAPHTHYRIDINE DERIVATIVES AND RELATED COMPOUNDS AS MODULATORS FOR SPLICING NUCLEIC ACIDS AND FOR THE TREATMENT OF PROLIFERATIVE DISEASES” (REMIX THERAPEUTICS INC., priority 2022, published 2025)

What was measured:
Format in all cases: cell-based, human
Settings in all cases: HiBiT knock-in K562 cells, 24 hours, top dose 10 μM
HTT = assay: HiBiT protein abundance assay, HTT (K562 HiBiT knock-in)
Procedure, shortened: (§1)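 Endogenously HiBiT-tagged K562 lines were treated for 24 h at 37 °C with 10-point 3-fold dilutions (top 10 μM final, DMSO ≤0.25%). Lytic LgBiT complementation luminescence was normalized between unmodified K562 (PC) and DMSO-treated tagged cells (NC); IC50 was interpolated at 50% from a four-parameter logistic fit.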

Target C = assay: HiBiT protein abundance assay, Target C (K562 HiBiT knock-in)
Procedure, shortened: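 K562 HiBiT knock-in cells (10000/well) were treated 24 h at 37° C with a 10-point 3-fold dilution series (top 10 μM final, ≤0.25% DMSO). HiBiT luminescence was read after lytic LgBiT detection. Percent response used unmodified K562 and DMSO-treated knock-in controls, and IC50 came from a four-parameter fit at 50% of untreated.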

MYB = assay: HiBiT protein abundance assay, MYB (K562 HiBiT knock-in)
Procedure, shortened: as §1

SMILES | IC50 (HTT) [nM] | IC50 (Target C) [nM] | IC50 (MYB) [nM]
Cc1c(O)c(-c2ccc3nc(N4CC[C@H](N[C@H]5C[C@H](F)C5)C4)ccc3n2)cc2cn(C)nc12 (single isomer, unassigned) [Compound 358] | < 100 | < 100 | < 100
Cn1cc2cc(-c3ccc4nc(N5CC[C@@H](N)C5)ccc4n3)c(O)c(F)c2n1 (single isomer, unassigned) [Compound 362] | < 100 | < 100 | < 100
CN[C@H]1CCN(c2ccc3nc(-c4cc5cn(C)nc5c(C)c4O)ncc3n2)C1 (single isomer, unassigned) [Compound 369] | 100 to 1000 | 100 to 1000 | < 100
Cc1nc2c(F)c(O)c(-c3ccc4nc(N5CC[C@H](NC6(CF)CC6)C5)ccc4n3)cc2o1 (single isomer, unassigned) [Compound 373] | < 100 | < 100 | < 100
Cc1nc2c(C)c(O)c(-c3ccc4nc(N5CC[C@@H](NC6(CF)CC6)C5)ccc4n3)cc2o1 (single isomer, unassigned) [Compound 379] | < 100 | 100 to 1000 | < 100
Cn1cc2cc(-c3ncc4nc(N5CC[C@@H](N)C5)ccc4n3)c(O)c(F)c2n1 (single isomer, unassigned) [Compound 380] | < 100 | 100 to 1000 | < 100
Cn1cc2cc(-c3ccc4nc(C5CCNC[C@H]5O)ccc4n3)c(O)cc2n1 (single isomer, unassigned) [Compound 386] | 1000 to 10000 | 1000 to 10000 | 100 to 1000
Cn1cc2cc(-c3ccc4nc(N5CC[C@@H](NC(C)(C)C)C5)ccc4n3)c(O)c(F)c2n1 (single isomer, unassigned) [Compound 391] | < 100 | < 100 | < 100
Cn1cc2cc(-c3ccc4nc(N5CC[C@H](NC(C)(C)C)C5)ccc4n3)c(O)c(F)c2n1 (single isomer, unassigned) [Compound 392] | < 100 | < 100 | < 100
Cc1nc2c(C)c(O)c(-c3ccc4nc(N5CC[C@@H](NC6CC6)C5)ncc4n3)cc2o1 (single isomer, unassigned) [Compound 432] | < 100 | < 100 | 100 to 1000
Cc1nc2cc(O)c(-c3ccc4nc(N5CC[C@@H](NC6CC6)C5)ncc4n3)cc2o1 (single isomer, unassigned) [Compound 434] | 100 to 1000 | < 100 | 100 to 1000
Cc1nc2c(C)c(O)c(-c3ccc4cc(N5CC[C@@H](NC(C)(C)C)C5)ncc4n3)cc2o1 (single isomer, unassigned) [Compound 444] | < 100 | 100 to 1000 | < 100
Cc1nc2c(C)c(O)c(-c3ccc4cc(N5CC[C@H](NC(C)(C)C)C5)ncc4n3)cc2o1 (single isomer, unassigned) [Compound 445] | 100 to 1000 | 1000 to 10000 | 100 to 1000
Cc1nc2cc(O)c(-c3ccc4nc(N5CC[C@H](NC6(CF)CC6)C5)ccc4n3)cc2o1 (single isomer, unassigned) [Compound 489] | < 100 | < 100 | < 100
Cn1cc2cc(-c3ccc4nc(N5CCC(NC6(CF)CC6)C5)ccc4n3)c(O)c(F)c2n1 (stereo in doubt) [Compound 353, 7-fluoro-5-{6-[(3R)-3-{[1-(fluoromethyl)cyclopropyl]amino}pyrrolidin-1-yl]-1,5-naphthyridin-2-yl}-2-methylindazol-6-ol] | < 100 | < 100 | < 100
Cn1cc2cc(-c3ccc4nc(N5CCC(NC6(CF)CC6)C5)ccc4n3)c(O)c(F)c2n1 (stereo in doubt) [Compound 357, 7-fluoro-5-{6-[(3S)-3-{[1-(fluoromethyl)cyclopropyl]amino}pyrrolidin-1-yl]-1,5-naphthyridin-2-yl}-2-methylindazol-6-ol] | < 100 | < 100 | < 100
Cn1cc2cc(-c3ccc4nc(N5CCC(N)C5)ccc4n3)c(O)c(F)c2n1 (stereo in doubt) [Compound 363, 5-{6-[(3R)-3-aminopyrrolidin-1-yl]-1,5-naphthyridin-2-yl}-7-fluoro-2-methylindazol-6-ol] | < 100 | < 100 | < 100
Cc1nc2cc(O)c(-c3ccc4nc(N5CC[C@H](N[C@H]6C[C@@H](F)C6)C5)ccc4n3)cc2o1 (stereo in doubt) [Compound 396] | < 100 | < 100 | 100 to 1000
Cc1c(O)c(-c2ccc3nc(N4CCC(NC5(CF)CC5)C4)ccc3n2)cc2cn(C)nc12 (stereo not drawn) [Compound 360, 5-[6-(3-{[1-(fluoromethyl)cyclopropyl]amino}pyrrolidin-1-yl)-1,5-naphthyridin-2-yl]-2,7-dimethylindazol-6-ol] | < 100 | < 100 | < 100
Cc1nc2c(F)c(O)c(-c3ccc4nc(N5CC[C@H](N[C@H]6C[C@@H](F)C6)C5)ccc4n3)cc2o1 [Compound 374, 4-fluoro-2-methyl-6-[6-(3-{[(1r,3r)-3-fluorocyclobutyl]amino}pyrrolidin-1-yl)-1,5-naphthyridin-2-yl]-1,3-benzoxazol-5-ol] | < 100 | < 100 | < 100
Cn1cc2cc(-c3ccc4nc(N5CC[C@H](NC6CC(F)(F)C6)C5)ccc4n3)c(O)cc2n1 [Compound 384] | 1000 to 10000 | 1000 to 10000 | 1000 to 10000

The next lines start with the values.

IC50 (HTT) [nM] | IC50 (Target C) [nM] | IC50 (MYB) [nM] | SMILES
< 100 | < 100 | < 100 | C[C@H]1C[C@H](c2ccc3nc(-c4cc5cn(C)nc5c(F)c4O)ccc3n2)CCN1 (single isomer, unassigned) [Compound 356]
100 to 1000 | 100 to 1000 | < 100 | CN[C@@H]1CCN(c2ccc3nc(-c4cc5cn(C)nc5c(C)c4O)ncc3n2)C1 (single isomer, unassigned) [Compound 368]
< 100 | < 100 | < 100 | Cc1nc2c(C)c(O)c(-c3ccc4nc(N5CC[C@H](NC6(CF)CC6)C5)ccc4n3)cc2o1 (single isomer, unassigned) [Compound 378]
< 100 | < 100 | < 100 | C[C@H]1C[C@@H](c2ccc3nc(-c4cc5cn(C)nc5c(F)c4O)ccc3n2)CCN1 (single isomer, unassigned) [Compound 383]
1000 to 10000 | 1000 to 10000 | 100 to 1000 | Cc1c(O)c(-c2ncc3nc([C@@H]4CCNC4)ccc3n2)cc2cn(C)nc12 (single isomer, unassigned) [Compound 398]
< 100 | < 100 | 100 to 1000 | Cc1nc2cc(O)c(-c3ccc4nc(N5CC[C@@H](NC6(CF)CC6)C5)ccc4n3)cc2o1 (single isomer, unassigned) [Compound 488]
< 100 | < 100 | < 100 | Cc1nc2c(F)c(O)c(-c3ccc4nc(N5CC[C@@H](NC6(CF)CC6)C5)ccc4n3)cc2o1 (single isomer, unassigned) [Compound 491]
< 100 | < 100 | < 100 | Cc1nc2c(F)c(O)c(-c3ccc4nc(N5CC[C@@H](N[C@H]6C[C@@H](F)C6)C5)ccc4n3)cc2o1 (stereo in doubt) [Compound 375]
< 100 | < 100 | < 100 | Cc1nc2c(C)c(O)c(-c3ccc4nc(N5CC[C@@H](N[C@H]6C[C@@H](F)C6)C5)ccc4n3)cc2o1 (stereo in doubt) [Compound 376]
< 100 | < 100 | < 100 | Cc1nc2c(C)c(O)c(-c3ccc4nc(N5CC[C@H](N[C@H]6C[C@@H](F)C6)C5)ccc4n3)cc2o1 (stereo in doubt) [Compound 377]
100 to 1000 | 100 to 1000 | 100 to 1000 | Cc1nc2cc(O)c(-c3ccc4nc(N5CC[C@@H](N[C@H]6C[C@@H](F)C6)C5)ccc4n3)cc2o1 (stereo in doubt) [Compound 395]
< 100 | < 100 | < 100 | Cn1cc2cc(-c3ccc4nc(N5CC[C@@H](NC6(CF)CC6)C5)ccc4n3)c(O)cc2n1 [Compound 354, 5-{6-[(3R)-3-{[1-(fluoromethyl)cyclopropyl]amino}pyrrolidin-1-yl]-1,5-naphthyridin-2-yl}-2-methylindazol-6-ol]
< 100 | < 100 | < 100 | Cn1cc2cc(-c3ccc4nc(N5CC[C@H](NC6(CF)CC6)C5)ccc4n3)c(O)cc2n1 [Compound 355, 5-{6-[(3S)-3-{[1-(fluoromethyl)cyclopropyl]amino}pyrrolidin-1-yl]-1,5-naphthyridin-2-yl}-2-methylindazol-6-ol]
> 10000 | 1000 to 10000 | 1000 to 10000 | Cc1c(O)c(-c2cc(C(C)O)c3nc(N4CCNCC4)ccc3n2)cc2cn(C)nc12 (stereo not drawn) [Compound 364, 5-[4-(1-hydroxyethyl)-6-(piperazin-1-yl)-1,5-naphthyridin-2-yl]-2,7-dimethylindazol-6-ol]
100 to 1000 | 100 to 1000 | 100 to 1000 | Cc1c(O)c(-c2ncc3nc(C4CCNCC4)ccc3n2)cc2cn(C)nc12 [Compound 370, 2,7-dimethyl-5-[6-(piperidin-4-yl)pyrido[3,2-d]pyrimidin-2-yl]indazol-6-ol]
100 to 1000 | 1000 to 10000 | < 100 | CNC1CCN(c2ccc3nc(-c4cc(C#N)c5nc(C)cn5c4)ncc3n2)C1 (stereo not drawn) [Compound 382, 2-methyl-6-{6-[3-(methylamino)pyrrolidin-1-yl]pyrido[3,2-d]pyrimidin-2-yl}imidazo[1,2-a]pyridine-8-carbonitrile]
